From patent US12319640B2, “Cyclic diones as herbicidal compounds” (SYNGENTA CROP PROTECTION AG, priority 2019, dated 2025)

What was measured:
Assay in all cases: Glasshouse herbicide test, pre- and post-emergence
Assay type in all cases: in vivo
Setaria faberi (SETFA) = conditions: 250 g/h, evaluated after 13 days, five-point scale; for percentage damage caused to the plant, SETFA POST: post-emergence; for percentage damage caused to the plant, SETFA PRE: pre-emergence
Description: (§1) Seeds of a variety of test species are sown in standard soil in pots (Lolium perenne (LOLPE), Setaria faberi (SETFA), Alopecurus myosuroides (ALOMY), Echinochloa crus-galli (ECHCG), Avena fatua (AVEFA)). After cultivation for one day (pre-emergence) or after 8 days cultivation (post-emergence) under controlled conditions in a glasshouse (at 24/16° C., day/night; 14 hours light; 65% humidity), the plants are sprayed with an aqueous spray solution derived from the formulation of the technical active ingredient in acetone/water (50:50) solution containing 0.5% Tween 20 (polyoxyethelyene sorbitan monolaurate, CAS RN 9005-64-5). Compounds are applied at 250 g/h. The test plants are then grown in a glasshouse under controlled conditions in a glasshouse (at 24/16° C., day/night; 14 hours light; 65% humidity) and watered twice daily. After 13 days for pre and post-emergence, the test is evaluated for the percentage damage caused to the plant. The biological activities are shown in the following table on a five-point scale (5=80-100%; 4=60-79%; 3=40-59%; 2=20-39%; 1=0-19%).

[1] = system: Echinochloa crus-galli (ECHCG); conditions: 250 g/h, evaluated after 13 days, five-point scale; for percentage damage caused to the plant, ECHCG POST: post-emergence; for percentage damage caused to the plant, ECHCG PRE: pre-emergence
Description: as §1

[2] = system: Alopecurus myosuroides (ALOMY); conditions: 250 g/h, evaluated after 13 days, five-point scale; for percentage damage caused to the plant, ALOMY POST: post-emergence; for percentage damage caused to the plant, ALOMY PRE: pre-emergence
Description: as §1

Avena fatua (AVEFA) = conditions: 250 g/h, evaluated after 13 days, five-point scale; for percentage damage caused to the plant, AVEFA POST: post-emergence; for percentage damage caused to the plant, AVEFA PRE: pre-emergence
Description: as §1

Lolium perenne (LOLPE) = conditions: 250 g/h, evaluated after 13 days, five-point scale; for percentage damage caused to the plant, LOLPE POST: post-emergence; for percentage damage caused to the plant, LOLPE PRE: pre-emergence
Description: as §1

| SMILES | percentage damage caused to the plant, SETFA POST (Setaria faberi (SETFA)) | percentage damage caused to the plant, SETFA PRE (Setaria faberi (SETFA)) | percentage damage caused to the plant, ECHCG POST [1] | percentage damage caused to the plant, ECHCG PRE [1] | percentage damage caused to the plant, ALOMY POST [2] | percentage damage caused to the plant, ALOMY PRE [2] | percentage damage caused to the plant, AVEFA POST (Avena fatua (AVEFA)) | percentage damage caused to the plant, AVEFA PRE (Avena fatua (AVEFA)) | percentage damage caused to the plant, LOLPE POST (Lolium perenne (LOLPE)) | percentage damage caused to the plant, LOLPE PRE (Lolium perenne (LOLPE)) |
| --- | --- | --- | --- | --- | --- | --- | --- | --- | --- | --- |
| Cc1cc(-c2ccc(C#N)cn2)cc(C)c1C1C(=O)CC2(CCC(C(=O)N(C)C)CC2)CC1=O (stereo not shown) [Compound 1.021] | 5 (5=80-100%) | 4 (4=60-79%) | 5 (5=80-100%) | 5 (5=80-100%) | 5 (5=80-100%) | 4 (4=60-79%) | 5 (5=80-100%) | 2 (2=20-39%) | 5 (5=80-100%) | 4 (4=60-79%) |
| CNC(=O)C1CCC2(CC1)CC(=O)C(c1c(C)cc(-c3ccc(Cl)cn3)cc1C)C(=O)C2 (stereo not shown) [Compound 1.022] | 5 (5=80-100%) | 5 (5=80-100%) | 5 (5=80-100%) | 5 (5=80-100%) | 5 (5=80-100%) | 5 (5=80-100%) | 5 (5=80-100%) | 5 (5=80-100%) | 5 (5=80-100%) | 5 (5=80-100%) |
| CNC(=O)C1CCC2(CC1)CC(=O)C(c1c(C)cc(-c3ncc(F)cc3F)cc1C)C(=O)C2 (stereo not shown) [Compound 1.023] | 5 (5=80-100%) | 5 (5=80-100%) | 5 (5=80-100%) | 5 (5=80-100%) | 5 (5=80-100%) | 5 (5=80-100%) | 5 (5=80-100%) | 5 (5=80-100%) | 5 (5=80-100%) | 5 (5=80-100%) |
| CNC(=O)C1CCC2(CC1)CC(=O)C(c1c(C)cc(-c3ccc(F)cn3)cc1C)C(=O)C2 (stereo not shown) [Compound 1.024] | 5 (5=80-100%) | 5 (5=80-100%) | 5 (5=80-100%) | 5 (5=80-100%) | 5 (5=80-100%) | 5 (5=80-100%) | 5 (5=80-100%) | 5 (5=80-100%) | 5 (5=80-100%) | 5 (5=80-100%) |
| CNC(=O)C1CCC2(CC1)CC(=O)C(c1c(C)cc(-c3ccc(F)cc3)cc1C)C(=O)C2 (stereo not shown) [Compound 1.025] | 5 (5=80-100%) | 5 (5=80-100%) | 5 (5=80-100%) | 5 (5=80-100%) | 5 (5=80-100%) | 5 (5=80-100%) | 5 (5=80-100%) | 5 (5=80-100%) | 5 (5=80-100%) | 5 (5=80-100%) |
| CC#Cc1cc(C)c(C2C(=O)CC3(CCC(NC(C)=O)CC3)CC2=O)c(C)c1 (stereo not shown) [Compound 2.001, N-[3-(2,6-dimethyl-4-prop-1-ynyl-phenyl)-2,4-dioxo-spiro[5.5]undecan-9-yl]acetamide] | 5 (5=80-100%) | 5 (5=80-100%) | 5 (5=80-100%) | 5 (5=80-100%) | 5 (5=80-100%) | 5 (5=80-100%) | 5 (5=80-100%) | 5 (5=80-100%) | 5 (5=80-100%) | 5 (5=80-100%) |
| CC#Cc1cc(C)c(C2C(=O)CC3(CCC(NC(C)=O)CC3)CC2=O)c(OC)c1 (stereo not shown) [Compound 2.003] | 5 (5=80-100%) | 5 (5=80-100%) | 5 (5=80-100%) | 5 (5=80-100%) | 5 (5=80-100%) | 5 (5=80-100%) | 5 (5=80-100%) | 5 (5=80-100%) | 5 (5=80-100%) | 5 (5=80-100%) |
| CC#Cc1cc(C)c(C2C(=O)CC3(CCC(NC(=O)C4CC4)CC3)CC2=O)c(C)c1 (stereo not shown) [Compound 2.004] | 5 (5=80-100%) | 5 (5=80-100%) | 5 (5=80-100%) | 5 (5=80-100%) | 5 (5=80-100%) | 5 (5=80-100%) | 5 (5=80-100%) | 5 (5=80-100%) | 5 (5=80-100%) | 5 (5=80-100%) |
| CC#Cc1cc(C)c(C2C(=O)CC3(CCC(NC(=O)C(C)(C)C)CC3)CC2=O)c(C)c1 (stereo not shown) [Compound 2.005] | 5 (5=80-100%) | 5 (5=80-100%) | 5 (5=80-100%) | 5 (5=80-100%) | 5 (5=80-100%) | 5 (5=80-100%) | 5 (5=80-100%) | 5 (5=80-100%) | 5 (5=80-100%) | 5 (5=80-100%) |
| CC#Cc1cc(C)c(C2C(=O)CC3(CCC(NC(=O)c4ccccn4)CC3)CC2=O)c(C)c1 (stereo not shown) [Compound 2.006] | 5 (5=80-100%) | 5 (5=80-100%) | 5 (5=80-100%) | 5 (5=80-100%) | 5 (5=80-100%) | 5 (5=80-100%) | 5 (5=80-100%) | 4 (4=60-79%) | 5 (5=80-100%) | 5 (5=80-100%) |
| CC#Cc1cc(C)c(C2C(=O)CC3(CCC(NC(=O)C(=O)NC)CC3)CC2=O)c(C)c1 (stereo not shown) [Compound 2.007] | 5 (5=80-100%) | 5 (5=80-100%) | 5 (5=80-100%) | 5 (5=80-100%) | 5 (5=80-100%) | 5 (5=80-100%) | 5 (5=80-100%) | 5 (5=80-100%) | 5 (5=80-100%) | 5 (5=80-100%) |
| CC#Cc1cc(C)c(C2C(=O)CC3(CCC(NC(=O)COC(F)F)CC3)CC2=O)c(C)c1 (stereo not shown) [Compound 2.008] | 5 (5=80-100%) | 5 (5=80-100%) | 5 (5=80-100%) | 5 (5=80-100%) | 5 (5=80-100%) | 5 (5=80-100%) | 5 (5=80-100%) | 5 (5=80-100%) | 5 (5=80-100%) | 5 (5=80-100%) |
| CC#Cc1cc(C)c(C2C(=O)CC3(CCC(NC(=O)C4COCCO4)CC3)CC2=O)c(C)c1 (stereo not shown) [Compound 2.009] | 5 (5=80-100%) | 5 (5=80-100%) | 5 (5=80-100%) | 5 (5=80-100%) | 4 (4=60-79%) | 4 (4=60-79%) | 5 (5=80-100%) | 4 (4=60-79%) | 5 (5=80-100%) | 5 (5=80-100%) |
